Data on 3 compounds can be found in US20080009418A1, “Selective Inhibitors” (Alchemia LTD., priority 2004, published 2008).

Assay [1] addresses T1, Human neuropeptide Y (NPY-Y1) (Homo sapiens, UniProt P25929).
T1 construct: purchased Perkin Elmer Biosignal
T1 sequence (P25929 1-384): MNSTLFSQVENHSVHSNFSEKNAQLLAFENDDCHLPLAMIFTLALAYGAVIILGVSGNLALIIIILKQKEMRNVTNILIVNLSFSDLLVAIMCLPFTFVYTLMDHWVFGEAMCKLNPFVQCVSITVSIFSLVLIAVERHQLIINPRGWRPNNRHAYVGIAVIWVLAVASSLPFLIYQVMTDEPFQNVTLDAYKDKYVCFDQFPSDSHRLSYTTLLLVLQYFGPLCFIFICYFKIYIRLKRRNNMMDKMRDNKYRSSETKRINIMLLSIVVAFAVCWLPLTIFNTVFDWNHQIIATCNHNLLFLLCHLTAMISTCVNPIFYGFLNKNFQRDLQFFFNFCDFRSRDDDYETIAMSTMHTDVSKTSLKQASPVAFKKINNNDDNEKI
Nature of the assay: Radioligand binding, human neuropeptide Y NPY-Y1 membranes, FlashPlate, [125I]-PYY. To be noted: compound at 10 μM, human NPY-Y1 membranes. An outline of the steps: (§1)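 Cloned human receptor membranes were coated onto FlashPlate wells and incubated with radioligand and compound (added from a 0.5 mM DMSO daughter plate) for 1 hour at room temperature in the dark. Scintillation counting gave percent inhibition, with DMSO defining total and reference ligand defining non-specific binding.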

Assay [2] has as its target T2, Human opioid (ORL1) (Homo sapiens, UniProt P41146).
T2 construct: purchased Perkin Elmer Biosignal
Put plainly: Radioligand binding, human opioid ORL1 membranes, FlashPlate, [125I]-Nociceptin. The note with it: compound at 10 μM, human ORL1 membranes. An outline of the steps:
as §1

Assay [3] concerns the target T3, Human Melanocortin (MC4) (Homo sapiens, UniProt P32245).
T3 construct: purchased Perkin Elmer Biosignal
Put plainly: Radioligand binding, human melanocortin MC4 membranes, FlashPlate, [125I]-NDP-αMSH. To be noted: compound at 10 μM; for A4 radioligand binding inhibition: human melanocortin MC4 membranes. In a few lines: as §1

Assay [4] deals with T4, Human δ-opioid (DOP) (Homo sapiens, UniProt P41143).
T4 construct: purchased Perkin Elmer Biosignal
T4 sequence (P41143 whole entry): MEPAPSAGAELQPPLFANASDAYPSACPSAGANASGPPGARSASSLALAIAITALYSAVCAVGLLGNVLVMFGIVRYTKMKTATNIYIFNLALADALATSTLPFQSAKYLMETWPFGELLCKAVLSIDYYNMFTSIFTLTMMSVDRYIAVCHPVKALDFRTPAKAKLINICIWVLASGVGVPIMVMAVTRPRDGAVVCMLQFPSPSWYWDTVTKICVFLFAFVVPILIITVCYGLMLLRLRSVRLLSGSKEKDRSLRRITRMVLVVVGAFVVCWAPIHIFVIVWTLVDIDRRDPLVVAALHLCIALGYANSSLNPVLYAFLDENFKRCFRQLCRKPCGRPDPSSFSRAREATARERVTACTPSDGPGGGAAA
Nature of the assay: Radioligand binding, human δ-opioid (DOP) membranes, FlashPlate, [3H]-Bremazocine. The note with it: compound at 10 μM; for A1 radioligand binding inhibition: human δ-opioid (DOP) membranes. In a few lines:
as §1

Assay [5] concerns the target T5, Human neurokinin (NK1) (Homo sapiens, UniProt P25103).
T5 construct: purchased Perkin Elmer Biosignal
Nature of the assay: Radioligand binding, human neurokinin NK1 membranes, filtration, [125I]-Substance P. The note with it: compound at 10 μM; for A8 radioligand binding inhibition: human neurokinin NK1 membranes. An outline of the steps: (§2)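 Percent inhibition of radioligand binding measured on recombinant human membranes: NK1 with [125I]-Substance P, KOP with [3H]-Diprenorphine. Incubation 1 h at room temperature, then harvest onto 0.3% PEI-soaked filters, cold Tris-HCl pH 7.4 washes and scintillation counting; non-specific binding from reference ligand wells.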

The target of assay [6] is T6, Human melanocortin (MC5) (Homo sapiens, UniProt P33032).
T6 construct: purchased Perkin Elmer Biosignal
T6 sequence (P33032 whole entry): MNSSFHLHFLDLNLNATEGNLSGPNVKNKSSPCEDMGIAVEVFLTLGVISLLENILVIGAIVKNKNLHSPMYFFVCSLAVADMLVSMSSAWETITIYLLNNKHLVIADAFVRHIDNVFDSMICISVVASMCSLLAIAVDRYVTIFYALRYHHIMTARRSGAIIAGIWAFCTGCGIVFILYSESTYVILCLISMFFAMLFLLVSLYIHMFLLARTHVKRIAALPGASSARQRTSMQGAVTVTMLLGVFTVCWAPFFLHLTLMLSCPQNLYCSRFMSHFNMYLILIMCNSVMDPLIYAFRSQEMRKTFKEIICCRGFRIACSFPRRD
Nature of the assay: Radioligand binding, human melanocortin MC5 membranes, FlashPlate, [125I]-NDP-αMSH. The note with it: compound at 10 μM; for A5 radioligand binding inhibition: human melanocortin MC5 membranes. In a few lines: as §1

Assay [7] deals with T7, Human Melanocortin (MC3) (Homo sapiens, UniProt P41968).
T7 construct: purchased Perkin Elmer Biosignal
T7 sequence (P41968 whole entry): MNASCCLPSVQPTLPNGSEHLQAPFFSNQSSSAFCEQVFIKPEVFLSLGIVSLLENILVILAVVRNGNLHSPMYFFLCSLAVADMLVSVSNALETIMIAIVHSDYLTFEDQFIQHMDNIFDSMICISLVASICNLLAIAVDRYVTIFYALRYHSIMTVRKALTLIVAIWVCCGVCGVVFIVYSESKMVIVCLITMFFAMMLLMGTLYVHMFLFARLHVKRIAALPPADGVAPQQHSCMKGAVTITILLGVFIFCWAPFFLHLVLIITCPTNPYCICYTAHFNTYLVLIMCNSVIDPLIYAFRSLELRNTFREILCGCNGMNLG
Put plainly: Radioligand binding, human melanocortin MC3 membranes, FlashPlate, [125I]-NDP-αMSH. The note with it: compound at 10 μM; for A3 radioligand binding inhibition: human melanocortin MC3 membranes. In a few lines: as §1

Assay [8] deals with T8, Human μ-opioid (MOP) (Homo sapiens, UniProt P35372).
T8 construct: purchased Perkin Elmer Biosignal
T8 sequence (P35372 whole entry): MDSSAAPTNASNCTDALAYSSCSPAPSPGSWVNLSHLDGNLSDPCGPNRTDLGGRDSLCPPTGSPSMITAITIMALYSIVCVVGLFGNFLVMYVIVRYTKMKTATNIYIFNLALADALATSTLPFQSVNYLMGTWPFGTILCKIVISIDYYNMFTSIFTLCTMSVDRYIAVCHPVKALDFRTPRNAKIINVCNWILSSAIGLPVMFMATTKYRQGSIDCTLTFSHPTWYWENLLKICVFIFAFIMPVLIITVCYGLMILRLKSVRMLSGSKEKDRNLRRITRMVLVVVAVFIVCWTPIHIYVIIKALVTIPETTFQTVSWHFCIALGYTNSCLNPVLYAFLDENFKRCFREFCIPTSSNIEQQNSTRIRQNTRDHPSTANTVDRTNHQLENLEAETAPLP
Put plainly: Radioligand binding, human μ-opioid (MOP) membranes, FlashPlate, [3H]-Naloxone. The note with it: compound at 10 μM; for A7 radioligand binding inhibition: human μ-opioid (MOP) membranes. An outline of the steps: as §1

Assay [9] deals with T9, Human melanin-concentrating hormone (MCH1) (Homo sapiens, UniProt Q99705).
T9 construct: purchased Perkin Elmer Biosignal
T9 sequence (Q99705 whole entry): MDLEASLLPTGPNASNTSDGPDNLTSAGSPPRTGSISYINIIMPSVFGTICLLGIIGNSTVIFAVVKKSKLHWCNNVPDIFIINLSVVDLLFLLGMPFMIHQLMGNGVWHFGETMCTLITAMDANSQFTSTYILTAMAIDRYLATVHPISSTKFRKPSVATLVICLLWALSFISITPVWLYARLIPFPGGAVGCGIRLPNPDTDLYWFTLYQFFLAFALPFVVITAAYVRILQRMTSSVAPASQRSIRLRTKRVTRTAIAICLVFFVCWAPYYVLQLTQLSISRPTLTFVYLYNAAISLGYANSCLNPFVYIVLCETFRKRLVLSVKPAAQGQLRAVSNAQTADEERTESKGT
Put plainly: Radioligand binding, human melanin-concentrating hormone MCH1 membranes, FlashPlate, [125I]-S36057. The note with it: compound at 10 μM; for A6 radioligand binding inhibition: human MCH1 membranes. In a few lines:
as §1

For assay [10], the target named is T10, Human κ-Opioid (KOP) (Homo sapiens, UniProt P41145).
T10 construct: purchased Perkin Elmer Biosignal
T10 sequence (P41145 whole entry): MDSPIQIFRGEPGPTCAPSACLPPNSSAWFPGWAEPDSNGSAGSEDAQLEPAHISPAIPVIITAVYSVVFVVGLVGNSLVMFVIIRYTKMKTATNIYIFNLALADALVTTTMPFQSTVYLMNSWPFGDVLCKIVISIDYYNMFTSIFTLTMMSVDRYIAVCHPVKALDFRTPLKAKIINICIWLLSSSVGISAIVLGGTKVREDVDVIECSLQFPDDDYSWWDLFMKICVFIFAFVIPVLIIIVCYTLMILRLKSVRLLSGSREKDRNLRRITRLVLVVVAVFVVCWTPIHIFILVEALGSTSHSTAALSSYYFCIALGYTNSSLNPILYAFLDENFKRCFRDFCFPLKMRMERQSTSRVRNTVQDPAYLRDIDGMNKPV
Put plainly: Radioligand binding, human κ-opioid (KOP) membranes, filtration, [3H]-Diprenorphine. To be noted: compound at 10 μM; for A2 radioligand binding inhibition: human κ-opioid (KOP) membranes. An outline of the steps: as §2

The target of assay [11] is T11, Mouse urotensin (mUR2) (Mus musculus, UniProt Q8VIH9).
T11 construct: purchased Perkin Elmer Biosignal
T11 sequence (Q8VIH9 1-385): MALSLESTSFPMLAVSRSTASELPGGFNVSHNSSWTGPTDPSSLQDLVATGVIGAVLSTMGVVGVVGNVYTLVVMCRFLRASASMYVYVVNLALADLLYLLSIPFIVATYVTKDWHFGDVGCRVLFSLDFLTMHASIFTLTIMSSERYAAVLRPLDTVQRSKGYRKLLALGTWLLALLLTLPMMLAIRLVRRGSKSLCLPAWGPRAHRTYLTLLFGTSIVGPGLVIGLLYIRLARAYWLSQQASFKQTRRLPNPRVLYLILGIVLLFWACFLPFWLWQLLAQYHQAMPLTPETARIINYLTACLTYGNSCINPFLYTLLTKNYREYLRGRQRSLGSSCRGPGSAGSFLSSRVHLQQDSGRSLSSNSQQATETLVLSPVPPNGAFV
Put plainly: Radioligand binding, mouse urotensin mUR2 membranes, FlashPlate, [125I]-Urotensin II. To be noted: compound at 10 μM; for A11 radioligand binding inhibition: mouse urotensin mUR2 membranes. In a few lines: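 Cloned mouse urotensin (mUR2) receptor membranes from Perkin Elmer Biosignal were immobilized in FlashPlate microplates using a proprietary coating. Each well got 19.5 μl buffer, then 0.5 μl of DMSO, reference ligand, or compound. Adding 5 μl of [125I]-Urotensin II, diluted to 5× final concentration in binding buffer, started binding. Plates were sealed with TopSeal-A and incubated 1 hour at room temperature in the dark. Wells were counted for 30 seconds each on a TopCount after a 60-second delay, and percentage inhibition was calculated.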

T3 sequence (P32245 whole entry): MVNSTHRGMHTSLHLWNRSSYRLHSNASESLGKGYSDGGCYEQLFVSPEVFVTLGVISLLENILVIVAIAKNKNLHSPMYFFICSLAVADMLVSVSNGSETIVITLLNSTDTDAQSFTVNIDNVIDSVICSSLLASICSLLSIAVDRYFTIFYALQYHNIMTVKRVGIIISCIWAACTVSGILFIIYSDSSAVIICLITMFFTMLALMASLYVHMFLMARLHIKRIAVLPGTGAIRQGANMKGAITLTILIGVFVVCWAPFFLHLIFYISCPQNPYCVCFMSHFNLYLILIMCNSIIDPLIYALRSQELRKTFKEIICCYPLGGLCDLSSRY
T2 sequence (P41146 whole entry): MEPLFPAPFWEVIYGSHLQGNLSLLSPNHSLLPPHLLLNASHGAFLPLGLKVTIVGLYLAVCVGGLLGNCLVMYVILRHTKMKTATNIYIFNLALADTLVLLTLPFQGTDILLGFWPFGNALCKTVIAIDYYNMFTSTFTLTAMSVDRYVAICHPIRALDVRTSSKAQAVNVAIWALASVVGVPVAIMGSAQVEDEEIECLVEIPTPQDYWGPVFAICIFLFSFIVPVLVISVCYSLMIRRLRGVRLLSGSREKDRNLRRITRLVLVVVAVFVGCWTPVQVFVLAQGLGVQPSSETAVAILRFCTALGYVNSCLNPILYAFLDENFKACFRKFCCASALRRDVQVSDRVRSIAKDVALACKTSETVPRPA
T5 sequence (P25103 whole entry): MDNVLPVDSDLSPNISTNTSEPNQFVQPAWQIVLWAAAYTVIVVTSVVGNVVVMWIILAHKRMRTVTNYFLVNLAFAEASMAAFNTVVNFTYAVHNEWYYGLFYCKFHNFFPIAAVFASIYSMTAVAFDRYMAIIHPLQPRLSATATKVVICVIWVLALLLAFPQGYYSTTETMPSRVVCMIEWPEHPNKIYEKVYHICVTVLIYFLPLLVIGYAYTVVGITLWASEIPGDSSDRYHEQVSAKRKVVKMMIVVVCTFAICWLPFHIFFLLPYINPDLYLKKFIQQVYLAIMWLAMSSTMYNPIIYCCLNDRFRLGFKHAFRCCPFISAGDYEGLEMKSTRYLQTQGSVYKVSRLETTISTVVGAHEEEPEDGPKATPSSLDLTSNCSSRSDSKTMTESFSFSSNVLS

Regarding `N=C(N)NCCC(=O)NC1C(OCc2ccc(Cl)cc2)OC(COCc2ccc(Cl)cc2)C(O)C1OCc1ccc(-c2ccccc2)cc1` (stereo not drawn) [compound 434], the “A9: inhibition of radioligand binding” value in [1] ([125I]-PYY) was “− (“−” indicates less than 50% inhibition at 10 μM)”. Moreover, the “A10: inhibition of radioligand binding” value in assay [2] ([125I]-Nociceptin) is on record as “− (“−” indicates less than 50% inhibition at 10 μM)”. In addition, in assay [3] ([125I]-NDP-αMSH, human MC4 membranes), the “A4: inhibition of radioligand binding” value was “+ (“+” indicates greater than 50% inhibition at 10 μM)”. Besides, the “A1: inhibition of radioligand binding” value in assay [4] ([3H]-Bremazocine, human DOP membranes) is “− (“−” indicates less than 50% inhibition at 10 μM)”. The “A8: inhibition of radioligand binding” value in assay [5] ([125I]-Substance P, human NK1 membranes) is “+ (“+” indicates greater than 50% inhibition at 10 μM)”. The “A5: inhibition of radioligand binding” value in [6] ([125I]-NDP-αMSH, human MC5 membranes) is reported as “+ (“+” indicates greater than 50% inhibition at 10 μM)”. Further, in assay [7] ([125I]-NDP-αMSH, human MC3 membranes), the “A3: inhibition of radioligand binding” value was “+ (“+” indicates greater than 50% inhibition at 10 μM)”. Also, in [8] ([3H]-Naloxone, human MOP membranes), the “A7: inhibition of radioligand binding” value is “− (“−” indicates less than 50% inhibition at 10 μM)”. Besides, the “A6: inhibition of radioligand binding” value in assay [9] ([125I]-S36057, human MCH1 membranes) is reported as “+ (“+” indicates greater than 50% inhibition at 10 μM)”. Also, the “A2: inhibition of radioligand binding” value in assay [10] ([3H]-Diprenorphine, human KOP membranes) is “− (“−” indicates less than 50% inhibition at 10 μM)”. Further, the “A11: inhibition of radioligand binding” value in [11] ([125I]-Urotensin II, mouse mUR2 membranes) was “− (“−” indicates less than 50% inhibition at 10 μM)”.
Consider `COC[C@H]1OC(OCc2ccc(-c3ccccc3)cc2)[C@H](NC(=O)CCCNC(=N)N)[C@@H](OCc2ccccc2)[C@@H]1O` (stereo partly drawn) [compound 9], for which the “A9 radioligand binding inhibition” value in assay [1] was “− (“−” indicates less than 50% inhibition at 10 μM)”. For the same compound, the “A10 radioligand binding inhibition” value in assay [2] is “− (“−” indicates less than 50% inhibition at 10 μM)”. Further, the “A4 radioligand binding inhibition” value in [3] was “− (“−” indicates less than 50% inhibition at 10 μM)”. In [4], the “A1 radioligand binding inhibition” value is recorded as “− (“−” indicates less than 50% inhibition at 10 μM)”. In assay [5], the “A8 radioligand binding inhibition” value is given as “+ (“+” indicates greater than 50% inhibition at 10 μM)”. Further, the “A5 radioligand binding inhibition” value in assay [6] is “− (“−” indicates less than 50% inhibition at 10 μM)”. Moreover, the “A3 radioligand binding inhibition” value in assay [7] was “− (“−” indicates less than 50% inhibition at 10 μM)”. In addition, the “A7 radioligand binding inhibition” value in assay [8] is on record as “− (“−” indicates less than 50% inhibition at 10 μM)”. Also, the “A6 radioligand binding inhibition” value in [9] (10 µM) is “− (“−” indicates less than 50% inhibition at 10 μM)”. Further, the “A2 radioligand binding inhibition” value in assay [10] was “− (“−” indicates less than 50% inhibition at 10 μM)”. In assay [11], the “A11 radioligand binding inhibition” value is reported as “− (“−” indicates less than 50% inhibition at 10 μM)”.
As to `COC[C@H]1OC(OCc2ccccc2)[C@H](NC(=O)CCNC(=N)N)[C@@H](OCc2ccc(-c3ccccc3)cc2)[C@@H]1O` (stereo partly drawn) [compound 24], the “A9 radioligand binding inhibition” value in assay [1] was “− (“−” indicates less than 50% inhibition at 10 μM)”. The “A10 radioligand binding inhibition” value in [2] is listed as “− (“−” indicates less than 50% inhibition at 10 μM)”. Besides, the “A4 radioligand binding inhibition” value in assay [3] was “− (“−” indicates less than 50% inhibition at 10 μM)”. For the same compound, in [4], the “A1 radioligand binding inhibition” value is given as “− (“−” indicates less than 50% inhibition at 10 μM)”. Besides, the “A8 radioligand binding inhibition” value in assay [5] is reported as “+ (“+” indicates greater than 50% inhibition at 10 μM)”. In assay [6], the “A5 radioligand binding inhibition” value is on record as “+ (“+” indicates greater than 50% inhibition at 10 μM)”. For the same compound, in assay [7], the “A3 radioligand binding inhibition” value is listed as “− (“−” indicates less than 50% inhibition at 10 μM)”. In assay [8], the “A7 radioligand binding inhibition” value is “− (“−” indicates less than 50% inhibition at 10 μM)”. Moreover, the “A6 radioligand binding inhibition” value in [9] is on record as “+ (“+” indicates greater than 50% inhibition at 10 μM)”. The “A2 radioligand binding inhibition” value in assay [10] is listed as “− (“−” indicates less than 50% inhibition at 10 μM)”. Also, in assay [11], the “A11 radioligand binding inhibition” value is reported as “− (“−” indicates less than 50% inhibition at 10 μM)”.
